Assay results from patent publication US10329304B2, “Compounds and methods for inhibition of hedgehog signaling and phosphodiesterase” (Vanderbilt University, priority 2014, dated 2019).
Entries after “also recorded” stand apart in the source; their conditions may differ.

How the values were obtained:
Gli1 transcription = experiment: Sufu−/− mouse embryonic fibroblasts qRT-PCR; type: cell-based; details: Gli1 and Ptch1
Gli2 trafficking = experiment: Gli2 ciliary localization and nuclear fraction western blot in NIH3T3 cells; type: cell-based; details: SAG 20 nM; for Gli2 localization in the primary cilium: 5 μM; for SAG-induced nuclear accumulation of full-length Gli2: Egm 10 μM, FSK 30 μM
BMP signaling (BRE-luc) = experiment: BMP4-responsive reporter (BRE-luc) in C2C12BRA cells; type: cell-based; details: stimulated with BMP4 ligand
[1] = system: Gli-Luc reporter activity; experiment: Gli-luciferase reporter under Gli overexpression; type: cell-based
Method: For Hh signaling assays, Shh-Light2 cells stably transfected with Gli-Luciferase reporter construct were used along with Shh-conditioned media, as previously described^7. Alternatively, 3 μM purmorphamine or 20 nM Smoothened agonist (SAG) (Santa Cruz Biotechnology, Santa Cruz, Calif.) was used to induce Hh signaling. Reporter cells were seeded in 96-well plates and incubated overnight with the various concentrations of eggmanone and Shh-conditioned media. To assess the effects of overexpression of Gli-2, PDE4D3 and DN-PDE4D3 on Hh signaling, mammalian expression vectors containing these constructs were transfected into Shh-Light2 cells in 96-well plates using Fugene6 (Roche), according to manufacturer's instructions. The transfected or Shh-stimulated cells were incubated overnight with the various concentrations of compound. The cells were then lysed, and cell extracts were subjected to Steady-Glo luciferase assay (Promega) according to manufacturer's instructions. The results were normalized to cell titer, as determined using Cell Titer-Glo luminescence assay (Promega).

11 PDE families = experiment: In vitro PDE activity assays across 11 PDE families; type: biochemical
Method: In vitro PDE profiling and dose-response assays were performed by BPS Biosciences (San Diego, Calif.). Kinetic Mechanism of inhibition studies were conducted by Millipore (St. Louis, Mo.). In brief, the PDE assay measures fluorescent polarization of FAM-AMP as FAM-cAMP is converted to FAM-AMP by PDE), the binding agent.
A series of dilutions of the test compound were prepared with 10% DMSO in assay buffer and 5 μl of the dilution was added to a 50 μl reaction so that the final concentration of DMSO is 1% in all of reactions. All of the PDE enzymatic reactions were conducted in duplicate at room temperature for 60 minutes in a 50 μl mixture containing PDE assay buffer (10 mM Tris-HCl, pH7.4, 10 mM MaCl2, 0.05% Tween 20), 100 nM FAM-cAMP, a PDE enzyme and a test compound.
After the enzymatic reaction, 100 μl of a binding solution (1:100 dilution of the binding agent, which contains the nano beads that recognize FAM-AMP, with the binding agent diluent) was added to each reaction and the reaction was performed at room temperature for 60 minutes. Fluorescence intensity was measured at an excitation of 485 nm and an emission of 528 nm using a Tecan Infinite M1000 microplate reader. Assays done by Millipore were conducted similarly with changes noted below: […]

Row | Structure (SMILES) | Transcriptional inhibition in the Sufu−/− cell line, in words (Gli1 transcription) | Gli2 localization in the primary cilium (Gli2 trafficking) | SAG-induced nuclear accumulation of full-length Gli2 (Gli2 trafficking) | BMP4-responsive reporter (BRE-luc) activity (BMP signaling (BRE-luc)) | Gli-luciferase reporter activity under Gli2 overexpression [1] | other results
1 | CCCn1c(SCC(=O)c2cccs2)nc2sc3c(c2c1=O)CCCC3 [Formula 9e] | general ability to inhibit transcriptional activity |  |  |  |  | 
2 | C=C(C)Cn1c(SCC(=O)c2ccccc2)nc2sc3c(c2c1=O)CCCC3 [Formula 9g] | general ability to inhibit transcriptional activity |  |  |  |  | 
3 | C=C(C)Cn1c(SCC(=O)c2cccs2)nc2sc3c(c2c1=O)CCCC3 [Eggmanone, 3-(2-methylallyl)-2-((2-oxo-2-(thiophen-2-yl)ethyl)thio)-5,6,7,8-tetrahydrobenzo[4,5]thieno[2,3-d]pyrimidine-4(3H)-one] |  | significantly more Gli2 accumulated in Eggmanone-treated cilia than in controls | blunted the nuclear accumulation of the full-length Gli2 | did not affect BMP-responsive luciferase reporter activity; also recorded: had no significant effects on BMP4-responsive reporter (BRE-luc) activity | did not block Gli-Luc reporter activity in cells transiently overexpressing Gli2 | Gli2 localization in the primary cilium (Gli2 trafficking; listed as eggmanone): more Gli2 accumulated in eggmanone-treated cilium than in controls; SAG-induced nuclear accumulation of full-length Gli2 (Gli2 trafficking; listed as eggmanone): blunted the nuclear accumulation of the full-length Gli2; BMP4-responsive reporter (BRE-luc) activity (BMP signaling (BRE-luc); listed as eggmanone): did not affect BMP-responsive luciferase reporter activity; Inhibition across PDE families (11 PDE families; 10 μM (10 and 50 μM in b110)): significantly inhibited only the PDE4 family; Inhibition across PDE families (11 PDE families; 10 μM (10 and 50 μM in b110), listed as eggmanone): significantly inhibited only the cAMP specific PDE4 family
4 | C=C(C)Cn1c(SCC(=O)c2cccs2)nc2sc3c(c2c1=O)CCCC3 [EGM, Eggmanone] |  | significantly increased Gli2 localization in the cilium | abrogated | had no significant effects on BMP4-responsive reporter (BRE-luc) activity | had no significant effect on Gli-luciferase reporter activity under Gli2 overexpression conditions | Gli2 localization in the primary cilium (Gli2 trafficking; listed as Egm): significantly increased Gli2 localization in the cilia; SAG-induced nuclear accumulation of full-length Gli2 (Gli2 trafficking; listed as Egm): abrogated; Inhibition across PDE families (11 PDE families; 10 μM (10 and 50 μM)): significantly inhibited only the PDE4 class
